Reference: patent US8383647B2, “Quinoline derivative” (Takeda Pharmaceutical Company Limited, priority 2009, dated 2013)
Where “and” joins values, the source holds several entries; their conditions need not be identical. Equal values may be shown once. Marks after values point to notes of the source that are not given here.

Key:
HERG = target: T1, HERG (Homo sapiens, UniProt Q12809); test: Evaluation of HERG inhibitory activity (whole-cell patch clamp, HERG.T.HEK cells); assay type: cell-based; conditions: peak tail current
T1 construct: host or cells: HERG.T.HEK (HEK cells, Geneticin-selected)
T1 sequence (Q12809 whole entry): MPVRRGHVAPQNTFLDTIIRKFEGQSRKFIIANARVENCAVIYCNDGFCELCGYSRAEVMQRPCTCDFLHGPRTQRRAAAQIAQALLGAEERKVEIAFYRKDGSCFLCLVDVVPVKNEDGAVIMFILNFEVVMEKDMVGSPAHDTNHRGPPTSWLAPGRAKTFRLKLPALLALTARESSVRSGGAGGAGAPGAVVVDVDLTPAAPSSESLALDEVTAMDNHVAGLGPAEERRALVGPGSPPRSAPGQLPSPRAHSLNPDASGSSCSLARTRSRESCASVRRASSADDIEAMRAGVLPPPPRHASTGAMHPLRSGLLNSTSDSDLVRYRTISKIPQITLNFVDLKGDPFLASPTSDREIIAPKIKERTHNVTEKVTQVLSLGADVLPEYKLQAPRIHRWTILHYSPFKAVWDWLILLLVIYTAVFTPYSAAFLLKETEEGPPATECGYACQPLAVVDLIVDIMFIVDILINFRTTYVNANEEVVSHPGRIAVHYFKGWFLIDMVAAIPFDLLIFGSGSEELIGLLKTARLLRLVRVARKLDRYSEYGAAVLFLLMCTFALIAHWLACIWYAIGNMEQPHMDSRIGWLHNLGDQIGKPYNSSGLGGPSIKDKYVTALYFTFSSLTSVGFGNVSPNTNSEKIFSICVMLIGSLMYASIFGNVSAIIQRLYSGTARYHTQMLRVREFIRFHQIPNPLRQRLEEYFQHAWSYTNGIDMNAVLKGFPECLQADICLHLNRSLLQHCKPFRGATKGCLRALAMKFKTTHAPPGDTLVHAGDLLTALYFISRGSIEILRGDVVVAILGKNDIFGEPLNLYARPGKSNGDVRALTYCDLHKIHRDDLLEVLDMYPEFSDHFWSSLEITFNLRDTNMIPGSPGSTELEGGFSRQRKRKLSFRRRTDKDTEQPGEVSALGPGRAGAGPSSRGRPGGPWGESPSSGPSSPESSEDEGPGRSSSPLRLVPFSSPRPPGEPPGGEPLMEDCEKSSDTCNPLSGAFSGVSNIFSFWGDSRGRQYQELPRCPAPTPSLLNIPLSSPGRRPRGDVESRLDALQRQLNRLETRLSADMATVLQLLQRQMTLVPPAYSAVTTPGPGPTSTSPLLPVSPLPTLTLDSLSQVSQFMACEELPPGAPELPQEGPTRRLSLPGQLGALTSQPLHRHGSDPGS
Source text: MEM medium, MEM nonessential amino acid solution, sodium pyruvate solution and G418 sulfate solution (Geneticin) were purchased from Invitrogen Corporation (Carlsbad, Calif.). Bovine serum albumin (BSA, Fatty Acid Free) was a product of Wako Pure Chemical Industries, Ltd. (Osaka, Japan). Fetal bovine serum (FCS) was a product of Trau Scientific Ltd. (Melbourne, Australia).
As HERG expression cell HERG.T.HEK, the cell obtained from Wisconsin ALUMNI Research Foundation was used. HERG.T.HEK was maintained and passaged at 37° C. in the presence of 5% CO2 using an MEM medium containing 10% FCS, 1 mM MEM nonessential amino acid, 1 mM sodium pyruvate and 500 μg/ml Geneticin.
80-90% confluent cells were collected by a trypsin treatment and plated on an IVF dish (Falcon, Franklin Lakes, N.J.). After 2-3 hr, cells were adhered to a glass electrode (resistance value 2-3 MΩ) filled with an electrode internal fluid (7 mM NaCl, 130 mM KCl, 1 mM MgCl2, 5 mM HEPES, 5 mM EGTA, 5 mM ATP-Na: pH 7.2) while perfusing with an extracellular fluid (137 mM NaCl, 4 mM KCl, 1 mM MgCl2, 1.8 mM CaCl2, 10 mM HEPES, 11 mM dextrose: pH 7.4), using a patch clamp amplifier AXOPATCH 200B (Axon instruments, Foster City, Calif.), whereby formation of whole-cell configuration and stimulation by voltage clamp protocol were performed (holding potential −75 mV, primary voltage 10 mV: 0.5 sec, secondary voltage −40 mV: 0.5 sec, stimulation frequency 5 sec (Example 31 and Example 50) or 10 sec (Comparative Example 1 and Comparative Example 2). A preliminary stimulation was applied and the HERG electric current value (peak tail current) was measured when the electric current waveform was stabilized.
For measurement of the HERG electric current with addition of the test compound, the cells were first perfused with the extracellular fluid and, when the waveform was stabilized, the cells were perfused with an extracellular fluid containing 10 μm of a test compound. When the electric current waveform was stabilized under respective perfuse conditions, the HERG electric current was measured.
The HERG electric current inhibitory rate (%) of the test compound was calculated with the HERG electric current value without addition of the test compound as 100%.

HepG2 cells = test: Evaluation of PLsis (NBD-PE uptake); assay type: cell-based; conditions: 24 hr exposure, relative to 10 μM Amiodarone, maximum value per unit concentration
Protocol: DMEM medium, L-glutamine, penicillin-streptomycin, pyruvic acid, and N-(7-nitrobenz-2-oxa-1,3-diazol-4-yl)-1,2-hexadecanoyl-sn-glycero-3-phosphoethanolamine triethylammonium salt (NBD-PE) were purchased from Invitrogen Corporation. As bovine serum albumin (BSA), a product of Thermo Trace Ltd. (Melbourne, Australia) was used, and as Amiodarone, a product of ICN (Costa Mesa, Calif.) was used. A test compound was used in the form of a 10 mM DMSO solution.
FBS was added at a final concentration of 5 vol % to DMEM medium supplemented with L-glutamine, pyruvic acid and penicillin-streptomycin and subjected to the experiment. Culture was performed using 5% carbon dioxide gas-95% air as a gas phase in a CO2 incubator at 37° C. HepG2 cells were suspended in a culture medium at 50×10^4 cells/mL, plated in a 96 well plate at 50 μL/well and precultured for 24 hr. After preculture, the culture medium was removed, a culture medium containing 60 μm NBD-PE was added at 50 μL/well, and a culture medium containing 0, 6 μM or 20 μM test compounds were each added at 50 μL/well to HepG2 cells, and the cells were cultured for 24 hr. As a positive control, Amiodarone was used at a final concentration of 10 μM.
After exposure to the test compound for 24 hr, the fluorescence intensity (Ex. 485 nm, Em. 538 nm) of NBD-PE uptaken by the cells was measured by a fluorometer. The measurement value with addition of 0 μM test compound solution was subtracted as a blank, a relative value to the measurement value with addition of 10 μm Amiodarone was calculated, and the maximum value per unit concentration of the test compound was obtained as a phospholipidosis (PLsis) induction potential.

human SLC-1 = human SLC-1 (Homo sapiens, UniProt Q99705); test: MCH receptor antagonistic activity (inhibitory activity, Experimental Example 1); assay type: biochemical
Sequence of human SLC-1 (Q99705 whole entry): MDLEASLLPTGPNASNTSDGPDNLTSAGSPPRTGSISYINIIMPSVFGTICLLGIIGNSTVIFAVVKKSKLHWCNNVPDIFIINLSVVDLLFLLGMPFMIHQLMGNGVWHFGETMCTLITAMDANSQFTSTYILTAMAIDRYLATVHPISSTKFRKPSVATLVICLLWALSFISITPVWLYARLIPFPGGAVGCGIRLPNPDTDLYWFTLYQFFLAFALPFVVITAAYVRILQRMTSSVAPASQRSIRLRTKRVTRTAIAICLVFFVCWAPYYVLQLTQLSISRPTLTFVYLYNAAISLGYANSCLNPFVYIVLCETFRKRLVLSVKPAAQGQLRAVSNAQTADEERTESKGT

rat SLC-1 = rat SLC-1 (Rattus norvegicus, UniProt P97639); test: as above; assay type: biochemical
Sequence of rat SLC-1 (P97639 whole entry): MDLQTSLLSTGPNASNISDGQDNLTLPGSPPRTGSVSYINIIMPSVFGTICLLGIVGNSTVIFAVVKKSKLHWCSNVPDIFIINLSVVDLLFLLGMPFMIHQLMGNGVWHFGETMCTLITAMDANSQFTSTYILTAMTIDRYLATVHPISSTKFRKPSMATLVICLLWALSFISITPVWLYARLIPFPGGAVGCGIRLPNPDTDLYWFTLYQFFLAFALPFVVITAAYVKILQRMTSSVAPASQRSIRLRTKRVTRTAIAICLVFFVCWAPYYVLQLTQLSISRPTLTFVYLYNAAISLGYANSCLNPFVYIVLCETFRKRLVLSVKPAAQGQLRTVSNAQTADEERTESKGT

[1] = test system: Male F344/Jcl rats fed on high-fat diet; test: Evaluation of anorectic effect using male F344/Jcl rats fed on high-fat diet; assay type: in vivo; conditions: 10 mg/kg by gavage, two administrations; food intake from initial administration to 48 hr; relative to control group; obese rat model
Protocol: Male F344/Jcl rats (42-week-old) loaded with a high-fat diet (Research Diets: D12451) from 5 weeks of age were used. From 2 weeks before the start of experiment, the rats were independently raised, a powder high-fat diet (Research Diets: D12451M) was given, tap water (0.5 mL) was administered for acclimation, and thereby the rats were habituated. The food intake from 14:00 the day before the start of experiment to 9:00 the next day was measured, and the rats were grouped based on the food intake and the body weight of the previous day as indices. On the day of the start of experiment and the next day at 16:00, 0.5% methylcellulose solution was administered by gavage to the control group, and 0.5% methylcellulose suspension (10 mg/kg) of the compound was administered by gavage to the compound administration group at 2 mL/kg (6 per group for both control group and compound administration group). The food intake from the initial administration to 48 hr later was measured. The food intake inhibition rate of each compound administration group to the control group was calculated.

SMILES	HERG electric current inhibitory rate (%) of 10 μM compound (HERG) [%]	PLsis induction potential (HepG2 cells)	IC50 (human SLC-1) [nM]	IC50 (rat SLC-1) [nM]	food intake inhibition rate (%) [1]	melting point
Cc1c(NC(=O)c2ccc(OCC3CC3)cc2)ccc2cc(CN[C@H]3CC[C@H](O)CC3)cnc12 [Com. Ex. 1, 4-(cyclopropylmethoxy)-N-[3-[[(trans-4-hydroxycyclohexyl)amino]methyl]-8-methylquinolin-7-yl]benzamide, reference compound]	58	23.5				
Cc1c(NC(=O)c2ccc(OCC3CC3)cc2)ccc2cc(CNC3CCC(C)(O)CC3)cnc12 (stereo not drawn) [Com. Ex. 2, 4-(cyclopropylmethoxy)-N-[3-[[(trans-4-hydroxy-4-methylcyclohexyl)amino]methyl]-8-methylquinolin-7-yl]benzamide, reference compound]	44.9	27.8				
Cc1c(NC(=O)c2ccc(OC[C@@H]3CCCO3)cc2)ccc2cc(CNC3CCOCC3)cnc12 [Example 31, N-{8-methyl-3-[(tetrahydro-2H-pyran-4-ylamino)methyl]quinolin-7-yl}-4-[(2S)-tetrahydrofuran-2-ylmethoxy]benzamide]	9.8	1.7	3.1	4.3	24.8*** %	158 to 159 °C
Cc1c(NC(=O)c2ccc(OC[C@@H]3CCCO3)cc2)ccc2cc(CN[C@H]3CC[C@](C)(O)CC3)cnc12 [Example 50, N-(3-{[(trans-4-hydroxy-4-methylcyclohexyl)amino]methyl}-8-methylquinolin-7-yl)-4-[(2S)-tetrahydrofuran-2-ylmethoxy]benzamide]	2.1	1.4	2.9	3.9	30.3*** %	165 °C and 169 °C
